Molecules are shown by their SMILES.

For this experiment, the target named is 5HT3a receptor expressed in HEK-293T cells (Homo sapiens (Human), UniProt P46098). The experiment in a line: Inhibition of Ca flux activity of 5HT3 in vitro assay. Type of experiment: cell-based. The conditions noted are these: calcium flux, 5HT 216 nM, approximate values. As to the method:
Inhibition of Ca Flux Activity of 5HT3 In Vitro Assay
The 5HT3 antagonist activity of the compounds of the invention was determined by measuring the ability of the compounds to inhibit the calcium flux activity of […] receptor expressed in HEK-293T cells. HEK-293T cells were transfected with the 5HT3a expression construct using Xtreme Gene 9 (Roche) in 150 mm tissue culture treated plates and incubated for 24 hours at 37° C. Cells were then split and plated at a density of 60K cells/well in poly-lysine coated, black 96-well plates with clear bottoms (BD BioSciences) and incubated overnight at 37° C. Growth media was removed and cells loaded with 200 uL calcium indicator dye in HBSS containing 20 mM HEPES (Calcium 5 Assay kit, Molecular Devices) and incubated at 37° C. for 1 hour. While cells were incubating, the 10× antagonist and agonist/antagonist addition plates were made. For 10× antagonist plate: half log serial dilutions (final concentrations range from 10^−7 through 10^−10 with the bottom well a negative, no ligand control) were made from test compounds in DMSO at a 1000× concentration and then diluted to 10× in HBSS/20 mM HEPES. For addition plate: 5HT was diluted to 100× in HBSS/20 mM HEPES (final concentration in the assay—216 nM) and 15 uL was added to each well of the addition plate, 15 uL of 10× compound was also added to the addition plate, and finally 120 uL of HBSS/20 mM HEPES (for a total of 150 uL). Cells were then removed from the incubator and equilibrated to room temperature for 10 minutes, then 22.5 uL of 10× test compounds were added in triplicate to the plates and incubated at room temperature for 10 minutes (Tropisetron was used as a positive control in every assay). Test plate and addition plate were loaded into the FlexStation III (Molecular Devices), and using the fluidics, 22.5 uL compound additions were made (at t=˜17 seconds), and fluorescence was measured for 90 seconds, reading every 2.2 seconds. Data sets were analyzed as max minus min using Software Max Pro (Molecular Devices). IC50 curves were generated using non-linear regression in GraphPad Prism.

Sequence of 5HT3a receptor expressed in HEK-293T cells (P46098 24-478): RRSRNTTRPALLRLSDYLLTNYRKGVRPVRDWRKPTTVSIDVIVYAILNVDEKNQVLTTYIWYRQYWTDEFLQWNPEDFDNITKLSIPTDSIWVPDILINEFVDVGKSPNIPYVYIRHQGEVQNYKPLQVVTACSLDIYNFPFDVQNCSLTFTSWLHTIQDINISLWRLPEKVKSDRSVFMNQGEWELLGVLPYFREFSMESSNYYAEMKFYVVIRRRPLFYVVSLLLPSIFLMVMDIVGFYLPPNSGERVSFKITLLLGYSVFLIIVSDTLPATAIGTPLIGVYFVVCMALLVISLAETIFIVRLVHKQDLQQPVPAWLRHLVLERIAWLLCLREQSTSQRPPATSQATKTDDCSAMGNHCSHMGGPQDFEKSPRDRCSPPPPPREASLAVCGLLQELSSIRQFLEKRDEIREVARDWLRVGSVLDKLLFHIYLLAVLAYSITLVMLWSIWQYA

`CN1[C@@H]2CC[C@H]1CC(OC(=O)c1c(Cl)n(CCF)c3ccccc13)C2` (stereo partly drawn) [Example 55, (1R,3R,5S)-8-methyl-8-azabicyclo[3.2.1]octan-3-yl 2-chloro-1-(2-fluoroethyl)-1H-indole-3-carboxylate, 2,2,2-trifluoroacetate]: the concentration for half-maximal inhibition (IC50) is 0.9 nM.

In the case of `CN1C2CCC1CC(OC(=O)c1nn(CCF)c3ccccc13)C2` [Example 57, (1R,3R,5S)-8-methyl-8-azabicyclo[3.2.1]octan-3-yl 1-(2-fluoroethyl)-1H-indazole-3-carboxylate, 2,2,2-trifluoroacetate], the IC50 was greater than 1000 nM. The value for `CN1[C@@H]2COC[C@H]1CC(OC(=O)c1cn(CC(F)F)c3ccc(F)cc13)C2` (stereo partly drawn) [Example 58, (1R,5S,7S)-9-methyl-3-oxa-9-azabicyclo[3.3.1]nonan-7-yl 1-(2,2-difluoroethyl)-5-fluoro-1H-indole-3-carboxylate, 2,2,2-trifluoroacetate] was 0.24 nM; that for `O=C(OC1CC2COCC(C1)N2)c1cn(CC(F)(F)F)c2ccc(F)cc12` [Example 59, (1R,5S,7S)-3-oxa-9-azabicyclo[3.3.1]nonan-7-yl 5-fluoro-1-(2,2,2-trifluoroethyl)-1H-indole-3-carboxylate, 2,2,2-trifluoroacetate] was 2.36 nM; that for `CN1[C@@H]2CCC[C@H]1CC(OC(=O)c1cn(CC(F)F)c3ccc(F)cc13)C2` (stereo partly drawn) [Example 60, (1R,3R,5S)-9-methyl-9-azabicyclo[3.3.1]nonan-3-yl 1-(2,2-difluoroethyl)-5-fluoro-1H-indole-3-carboxylate, 2,2,2-trifluoroacetate] was 0.44 nM. As to `CN1C2CCCC1CC(OC(=O)c1cn(CC(F)F)c3ncccc13)C2` [Example 61, (1R,3R,5S)-9-methyl-9-azabicyclo[3.3.1]nonan-3-yl 1-(2,2-difluoroethyl)-1H-pyrrolo[2,3-b]pyridine-3-carboxylate, 2,2,2-trifluoroacetate], the half-maximal inhibitory concentration (IC50) turned out to be 1 nM. Regarding `CN1C2CCC1CC(NC(=O)c1nn(S(C)(=O)=O)c3ccccc13)C2` [Example 62, N-((1R,3R,5S)-8-methyl-8-azabicyclo[3.2.1]octan-3-yl)-1-(methylsulfonyl)-1H-indazole-3-carboxamide, 2,2,2-trifluoroacetate], the concentration for half-maximal inhibition (IC50) turned out to be 0.75 nM.

For the compound `CN1[C@@H]2COC[C@H]1CC(NC(=O)c1cn(CC(F)F)c3ccc(F)cc13)C2` (stereo partly drawn) [Example 63, 1-(2,2-difluoroethyl)-5-fluoro-N-((1R,5S,7S)-9-methyl-3-oxa-9-azabicyclo[3.3.1]nonan-7-yl)-1H-indole-3-carboxamide, 2,2,2-trifluoroacetate], the IC50 was 0.49 nM. The same measure for `CN1C2COCC1CC(NC(=O)c1cn(CC(F)F)c3ncccc13)C2` [Example 64, 1-(2,2-difluoroethyl)-N-((1R,5S,7S)-9-methyl-3-oxa-9-azabicyclo[3.3.1]nonan-7-yl)-1H-pyrrolo[2,3-b]pyridine-3-carboxamide, 2,2,2-trifluoroacetate]: 1.43 nM. The value for `O=C(NC1C[C@H]2COC[C@@H](C1)N2)c1nn(CC(F)F)c2ccccc12` (stereo partly drawn) [Example 65, N-((1R,5S,7S)-3-oxa-9-azabicyclo[3.3.1]nonan-7-yl)-1-(2,2-difluoroethyl)-1H-indazole-3-carboxamide, 2,2,2-trifluoroacetate] was 4.09 nM; that for `CN1[C@@H]2COC[C@H]1CC(NC(=O)c1nn(CC(F)F)c3ncccc13)C2` (stereo partly drawn) [Example 66, 1-(2,2-difluoroethyl)-N-((1R,5S,7S)-9-methyl-3-oxa-9-azabicyclo[3.3.1]nonan-7-yl)-1H-pyrazolo[3,4-b]pyridine-3-carboxamide, 2,2,2-trifluoroacetate] was 1.07 nM; that for `O=C(N[C@H]1CN2CCC1CC2)c1cn(CC(F)F)c2ncccc12` [Example 67, (R)-1-(2,2-difluoroethyl)-N-(quinuclidin-3-yl)-1H-pyrrolo[2,3-b]pyridine-3-carboxamide, 2,2,2-trifluoroacetate] was greater than 1000 nM. Turning to `CN1C2COCC1CC(NC(=O)c1cn(C(C)(C)C(F)(F)F)c3ncccc13)C2` [Example 69, N-((1R,5S,7S)-9-methyl-3-oxa-9-azabicyclo[3.3.1]nonan-7-yl)-1-(1,1,1-trifluoro-2-methylpropan-2-yl)-1H-pyrrolo[2,3-b]pyridine-3-carboxamide, 2,2,2-trifluoroacetate], the IC50 amounted to 1.06 nM. As for `CN1[C@@H]2CC[C@H]1CC(OC(=O)c1cn(CC(F)F)c3ncccc13)C2` (stereo partly drawn) [Example 72, (1R,3R,5S)-8-methyl-8-azabicyclo[3.2.1]octan-3-yl 1-(2,2-difluoroethyl)-1H-pyrrolo[2,3-b]pyridine-3-carboxylate, 2,2,2-trifluoroacetate], the IC50 amounted to 3.59 nM.

Take `Cc1c(C(=O)OC2C[C@H]3CC[C@@H](C2)N3C)c2ccccc2n1CC(F)F` (stereo partly drawn) [Example 73, (1R,3R,5S)-8-methyl-8-azabicyclo[3.2.1]octan-3-yl 1-(2,2-difluoroethyl)-2-methyl-1H-indole-3-carboxylate, 2,2,2-trifluoroacetate]: the IC50 stood at 3.15 nM.

On to `CN1[C@@H]2CC[C@H]1CC(NC(=O)c1cn(S(C)(=O)=O)c3ccccc13)C2` (stereo partly drawn) [Example 74, N-((1R,3R,5S)-8-methyl-8-azabicyclo[3.2.1]octan-3-yl)-1-(methylsulfonyl)-1H-indole-3-carboxamide, 2,2,2-trifluoroacetate], for which the 50% inhibitory concentration (IC50) stood at 0.42 nM. The same measure for `CN1[C@@H]2CC[C@H]1CC(NC(=O)c1cn(CC(F)F)c3ccc(F)cc13)C2` (stereo partly drawn) [Example 75, 1-(2,2-difluoroethyl)-5-fluoro-N-((1R,3R,5S)-8-methyl-8-azabicyclo[3.2.1]octan-3-yl)-1H-indole-3-carboxamide, 2,2,2-trifluoroacetate]: 3.15 nM. The same measure for `CN1[C@@H]2CC[C@H]1CC(NC(=O)c1cn(CC(F)F)c3ncccc13)C2` (stereo partly drawn) [Example 76, 1-(2,2-difluoroethyl)-N-((1R,3R,5S)-8-methyl-8-azabicyclo[3.2.1]octan-3-yl)-1H-pyrrolo[2,3-b]pyridine-3-carboxamide, 2,2,2-trifluoroacetate]: 1.22 nM; for `CN1[C@@H]2CCC[C@H]1CC(NC(=O)c1cn(CC(F)F)c3ncccc13)C2` (stereo partly drawn) [Example 77, 1-(2,2-difluoroethyl)-N-((1R,3R,5S)-9-methyl-9-azabicyclo[3.3.1]nonan-3-yl)-1H-pyrrolo[2,3-b]pyridine-3-carboxamide, 2,2,2-trifluoroacetate]: 10.5 nM; for `CS(=O)(=O)n1cc(C(=O)NC2C[C@H]3COC[C@@H](C2)N3)c2cc(F)ccc21` (stereo partly drawn) [Example 78, N-((1R,5S,7S)-3-oxa-9-azabicyclo[3.3.1]nonan-7-yl)-5-fluoro-1-(methylsulfonyl)-1H-indole-3-carboxamide, 2,2,2-trifluoroacetate]: 4.81 nM. The same measure for `CN1C2COCC1CC(NC(=O)c1cn(CCF)c3ccccc13)C2` [Example 79, 1-(2-fluoroethyl)-N-((1R,5S,7S)-9-methyl-3-oxa-9-azabicyclo-[3.3.1]nonan-7-yl)-1H-indole-3-carboxamide, 2,2,2-trifluoroacetate]: 0.41 nM; for `CN1[C@@H]2COC[C@H]1CC(NC(=O)c1cn(C(F)C(F)(F)F)c3ncccc13)C2` (stereo partly drawn) [Example 81, N-((1R,5S,7S)-9-methyl-3-oxa-9-azabicyclo[3.3.1]nonan-7-yl)-1-(1,2,2,2-tetrafluoroethyl)-1H-pyrrolo[2,3-b]pyridine-3-carboxamide, 2,2,2-trifluoroacetate]: 1.44 nM.
